Source: ChEMBL document CHEMBL1201862, “PubChem BioAssay data set” (2004)
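Results reflect a 48-hour exposure of cells in 96-well plates to compound at five concentrations. GI50 = concentration required for 50% inhibition of growth.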 Calls of active or inactive are those of the source. Cut-off read from the data, not from the text of the source: active = GI50 up to about 1.1 µM and inactive = higher.

Assays:
Experiment in all cases: NCI anticancer screen, dose series, 48 h
[1] = tested on: UACC-62
[2] = tested on: KM12
[3] = tested on: SNB-19
[4] = tested on: K562
[5] = tested on: OVCAR-3
[6] = tested on: ACHN
[7] = tested on: SF-295
[8] = tested on: CAKI-1
[9] = tested on: NCI-H460
[10] = tested on: Malme-3M
[11] = tested on: DLD-1
[12] = tested on: LOX IMVI
[13] = tested on: SK-MEL-2
[14] = tested on: SN12C
[15] = tested on: NCI-H226

Measured: GI50

COc1ccc(C(=O)C=C2NCCN2)cc1
inactive: [1] > 100 µM | [2] > 100 µM | [3] > 100 µM | [4] > 100 µM | [5] > 100 µM | [6] > 100 µM | [7] > 100 µM | [8] > 100 µM | [9] > 100 µM | [10] > 100 µM | [11] > 100 µM | [12] > 100 µM | [13] > 100 µM | [14] > 100 µM | [15] > 100 µM

CC(=O)OCC1OC(OC2CC3C(C)(C)C(O)CC[C@]3(C)C3CCC45CC4(CC[C@H]5C(C)CC(O)C4OC4(C)C)[C@]23C)C(O)C(O)C1O (stereo not given in full)
inactive: [1] 7.45 µM | [2] 8.04 µM | [3] 8 µM | [4] 1.85 µM | [5] 6.17 µM | [6] 8.63 µM | [7] 8.24 µM | [8] 8.87 µM | [9] 8.91 µM | [10] 8.97 µM | [11] 8.09 µM | [12] 5.2 µM | [13] 5.86 µM | [14] 8.24 µM | [15] 8.95 µM

NC(CCCNCc1ccccc1)C(=O)O (stereo not given)
inactive: [1] > 100 µM | [2] > 100 µM | [3] > 100 µM | [4] > 100 µM | [5] > 100 µM | [6] > 100 µM | [7] > 10 µM | [8] > 100 µM | [9] > 100 µM | [10] > 100 µM | [11] > 100 µM | [12] > 100 µM | [13] > 100 µM | [14] > 100 µM | [15] > 100 µM

O=C1c2ccccc2C(=O)C1C(c1ccc(F)cc1)C1C(=O)c2ccccc2C1=O
inactive: [1] > 100 µM | [2] > 100 µM | [3] > 100 µM | [4] > 100 µM | [5] > 100 µM | [6] > 100 µM | [7] > 100 µM | [8] > 100 µM | [9] > 100 µM | [10] > 100 µM | [11] > 100 µM | [12] 25.9 µM | [13] > 100 µM | [14] > 100 µM | [15] > 100 µM

O=C(O)CCNCCCCNCCC(=O)O
inactive: [1] > 100 µM | [2] > 100 µM | [3] > 100 µM | [4] > 100 µM | [5] > 100 µM | [6] > 100 µM | [7] > 100 µM | [8] > 100 µM | [9] > 100 µM | [10] > 100 µM | [11] > 100 µM | [12] > 100 µM | [13] > 100 µM | [14] > 100 µM | [15] > 100 µM
